Laboratory results reported in patent publication US20220323472A1, “ANTI-PARASITIC COMPOUNDS FOR THE TREATMENT AND PREVENTION OF VIRAL DISEASES” (priority 2021, published 2022).

Tested on: Demodex mites
Assay: in vitro Demodex survival time assay (LT50)
Method: FIG. 4 summarizes the activity of 10% chloroquine in water relative to a water control on activity against Demodex mites in an in vitro assay, with an LT5o of 31.6 hours for chloroquine compared to 44.8 hours for the water control, illustrating the inactivation effect of chloroquine on Demodex.
Accordingly, chloroquine and ivermectin may be used to treat SAR-CoV-2 by reducing the microbial load or Demodex population of a patient suffering from viral infection.
In vitro efficacy and mite lifetimes: Relative efficacy of various formulations are evaluated with a demodex survival time experiments. FIG. 3 tabulates demodex survival time, expressed in terms of LT50 (time at which 50% of demodex mites are killed) and/or average minutes to death for various active agents.

CCN(CC)CCCC(C)Nc1ccnc2cc(Cl)ccc12 (centres unmarked) [chloroquine]
LT50 (time at which 50% of demodex mites are killed) (10% chloroquine in water, in vitro assay, water control 44.8 hours): 31.6 h | ex-vivo activity against Demodex mites (in vitro assay (FIGS. 3 and 4)): some ex-vivo activity
